Reference: patent US20110306668A1 (NATIONAL TSING HUA UNIVERSITY, priority 2010, published 2011)

Assays:
Format in all cases: cell-based
[1] = tested on: A549 (Human type II epithelial cell line); assay: Cytotoxicity by MTT assay, A549 cells; conditions: 48 h, incubation of 2 days, read-out: IC50 values, inhibition of growth of cells
Procedure: (§1) The cell lines were used in the present invention, including C26 (solid murine colon carcinoma), A549 (Human type II epithelial cell line, from American Type Culture Collection, Manassas, Va.), MCF7 (solid human estrogen receptor positive breast carcinoma) and Tramp C1 (transgenic adenocarcinoma of the mouse prostate).
(§2) 10 μL combinatorial compound was added into the well of microtiterplate planted with 100 μL of abovementioned cell lines in a concentration of 30000 cells/mL. After an incubation of 2 days, the supernatants were washed, followed by adding MTT reagents. After 4 hrs, absorbance at 580 nm was recorded according to the usual protocol.

[2] = tested on: Tramp C1 (transgenic adenocarcinoma of the mouse prostate); assay: Cytotoxicity by MTT assay, TRAMP C-1 cells; conditions: for IC50: Mus musculus, TRAMP-C1, 48 h, TRAMP C-1 cells, MTT, incubation of 2 days, read-out: IC50 values, inhibition of growth of cells
Procedure: as §1, §2

[3] = tested on: C26 (solid murine colon carcinoma); assay: Cytotoxicity by MTT assay, C26 cells; conditions: Mus musculus, 48 h, incubation of 2 days, read-out: IC50 values, inhibition of growth of cells
Procedure: as §1, §2

[4] = tested on: MCF7 (solid human estrogen receptor positive breast carcinoma); assay: Cytotoxicity by MTT assay, MCF7 cells; conditions: 48 h, incubation of 2 days, read-out: IC50 values, inhibition of growth of cells
Procedure: as §1, §2

Row | SMILES | IC50 [1] [µM] | IC50 [2] [µM] | IC50 [3] [µM] | IC50 [4] [µM] | cytotoxicity against Tramp C-1 cell ([2]; Tramp C-1 cell, result in words)
1 | O=C(O)CCC(=O)c1ccc(-c2ccccc2)cc1 [Fenbufen, 4-(biphenyl-4-yl)-4-oxobutanoic acid, reference compound] | > 100 | > 100 | > 100 |  | 
2 | Cc1ccc(C)c(OCCCC(C)(C)C(=O)NCCCCNC(=O)CCC(=O)c2ccc(-c3ccccc3)cc2)c1 [compound 12, N-(4-(4-(biphenyl-4-yl)-4-oxobutanamido)butyl)-5-(2,5-dimethylphenoxy)-2,2-dimethylpentanamide] | 9 | 21 | 15 | 2 | 
3 | CCCCC(CC)C(=O)NCCCCNC(=O)CCC(=O)c1ccc(-c2ccccc2)cc1 (stereo not shown) [compound 13, N-(4-(4-(biphenyl-4-yl)-4-oxobutanamido)butyl)-2-ethylhexanamide] | 17 | 18 | 15 | < 1 | 
4 | C=C(CC)C(=O)c1ccc(OCC(=O)NCCCCNC(=O)CCC(=O)c2ccc(-c3ccccc3)cc2)c(Cl)c1Cl [compound 14, 4-(biphenyl-4-yl)-N-(4-(2-(2,3-dichloro-4-(2-methylenebutanoyl)phenoxy)acetamido)butyl)-4-oxobutanamide] | 19 | > 100 | 35 | 5 | void of cytotoxicity
